Results on 13 compounds are retold here after US4874898A, “Novel substituted anthrasteroid derivatives” (Shionogi and Co., Ltd. Patent Department, priority 1987, dated 1989).

The test system of assay [1] is seminal vesicles. Description: Assay for Antiandrogenic Activity (Subcutaneous administration), seminal vesicle weight. The assay is classed as in vivo, SD-JCL male rats (castrated). Conditions: for I. R. (%) A* (Inhibition rate, seminal vesicle) / Weight (Mean mg ± S.E.) A* (seminal vesicle): 7 days; for I. R. (%) A* (Inhibition rate, seminal vesicle): with testosterone propionate 0.02 mg/day, Table 1-1; for Weight (Mean mg ± S.E.) A* (seminal vesicle) / I. R. (%) A* (seminal vesicle): Table 1-2. The procedure: (§1) Assay for Antiandrogenic Activity (Subcutaneous administration)
(§2) The three week-old SD-JCL male rats were castrated and the drug treatment was started from three days after the castration. The rats were divided into groups; one group consists of six rats. One group was intact with any drug, the 2nd group was treated subcutaneously with a solution or suspension of 0.02 mg of testosterone propionate in sesame oil a day, and the other groups was treated with 0.1 to 3 mg of the test compound and 0.02 mg of testosterone propionate in sesame oil a day. This treatment was carried out for 7 days, successively. The rats were killed next day of the last treatment and the seminal vesicles and ventral prostates were taken out and weighed. Antiandrogenic activity of the test compounds were estimated as […] of seminal vesicles and ventral prostates induced by testosterone propionate.

For assay [2], the system named is ventral prostates. Description: Assay for Antiandrogenic Activity (Subcutaneous administration), ventral prostate weight. The assay is classed as in vivo, SD-JCL male rats (castrated). To be noted: for I. R. (%) B* (Inhibition rate, prostate) / Weight (Mean mg ± S.E.) B* (prostate): 7 days; for I. R. (%) B* (Inhibition rate, prostate): with testosterone propionate 0.02 mg/day, Table 1-1; for Weight (Mean mg ± S.E.) B* (prostate) / I. R. (%) B* (prostate): Table 1-2. The procedure:
as §1, §2

The subject of assay [3] is ventral prostates. Nature of the assay: Assay for Antiandrogenic Activity (Oral Administration), ventral prostate weight. The assay is classed as in vivo, SD-JCL male rats (castrated). Conditions: 3 mg orally, 7 days, with testosterone propionate 0.02 mg/day s.c.; Table 2. The procedure:
(§3) Assay for Antiandrogenic Activity (Oral Administration)
(§4) The three week-old SD-JCL male rats were castrated and the drug treatment was started from three days after the castration. The rats were divided into groups; one group consists of six rats. One group was treated with 0.02 mg of testosterone propionate in sesame oil a day by injecting subcutaneously and the other groups were treated with 0.02 mg of testosterone propionate and simultaneously treated orally with a suspension of 3 mg of the test compound in sesame oil. The castrated control group was treated with sesame oil. This treatment was continued for 7 days, successively. The rats were killed 24 hours after the last treatment and the seminal vesicles and ventral prostates were taken out and weighed.

Assay [4] concerns seminal vesicles. Description: Assay for Antiandrogenic Activity (Oral Administration), seminal vesicle weight. In kind it is in vivo, SD-JCL male rats (castrated). Conditions: 3 mg orally, 7 days, with testosterone propionate 0.02 mg/day s.c.; Table 2. How it is done:
as §3, §4

The test system of assay [5] is Shionogi-carcinoma 115 (SC-115). Nature of the assay: Assay for growth inhibitory activity against androgen-dependent tumor (Shionogi-carcinoma 115). In kind it is in vivo, mice (castrated). To be noted: 14 days. The source says: The followings show an assay for antiandrogenic activity against androgen-dependent tumor, Shionogi-carcinoma 115 (SC-115). The SC-115 is a tumor cell which grows in the presence of an androgen and its hormone dependency is widely known as a prostatic cancer model. Therefore, the androgenic activity is also estimated by examining the growth inhibition effect against this tumor.
Assay for growth inhibitory activity against androgen-dependent tumor (Shionogi-carcinoma 115)
The six week-old mice were castrated and […] of Shionogi-carcinoma tumor pieces was grafted into the back subcutaneously on the fifth day from the castration. The grafted mice were divided into groups, each consisting of seven mice, and the drug treatment was started immediately after the graft. One group was intact with any drug, and the 2nd group was treated subcutaneously with 0.1 mg of testosterone propionate a day. The other groups were treated subcutaneously with a suspension of 0.1 mg of testosterone propionate and 0.1 to 2.0 mg per day of test compounds a day as a conventional steroid solution. This treatment was carried out for 14 days, successively. The mice were killed next day of the last treatment and the tumor was taken out to weigh.

Where [6] appears, read: 0.1 mg/day s.c., with testosterone propionate 0.1 mg/day.
[7] abbreviates: 0.5 mg/day s.c., with testosterone propionate 0.1 mg/day.
Setting [8] is: 2.0 mg/day s.c., with testosterone propionate 0.1 mg/day.
Where [9] appears, read: testosterone propionate alone, 0.02 mg/day s.c.
Where [10] appears, read: 0.1 mg/day s.c., with testosterone propionate.
[11] abbreviates: 0.3 mg/day s.c., with testosterone propionate.
The mark [12] stands for this setting: 1 mg/day s.c., with testosterone propionate.
[13] abbreviates: 3 mg/day s.c., with testosterone propionate.

On to `CC1C2=CC(=O)CCC2CC2C1CCC1(C)C(O)CCC21` (stereo not shown), for which the “I. R. (%) A* (Inhibition rate, seminal vesicle)” value in the assay on seminal vesicles [1] (1 mg/day s.c.) was 25%.

On to `CC1=C2C=CC3(C)C(O)CCC3C2CC2CCC(=O)C=C12` (stereo not shown), for which the “I. R. (%) B* (Inhibition rate, prostate)” value with ventral prostates [2] (1 mg/day s.c.) was 44%. Further, in the assay with seminal vesicles [1] (1 mg/day s.c.), the “I. R. (%) A* (Inhibition rate, seminal vesicle)” value is 69%.

In the case of `CC1=C2CCC3(C)C(=O)CCC3C2CC2CCC(=O)C=C12` (stereo not shown), the “I. R. (%) B* (Inhibition rate, prostate)” value in the assay on ventral prostates [2] (1 mg/day s.c.) is 42%. Moreover, the “I. R. (%) A* (Inhibition rate, seminal vesicle)” value with seminal vesicles [1] (1 mg/day s.c.) is on record as 57%.

With `CCC(=O)OC1CCC2C3CC4CCC(=O)C=C4C(C)=C3CCC12C` (stereo not shown), in the assay on ventral prostates [2] (1 mg/day s.c.), the “I. R. (%) B* (Inhibition rate, prostate)” value is 50%. Also, the “I. R. (%) A* (Inhibition rate, seminal vesicle)” value in the assay on seminal vesicles [1] (1 mg/day s.c.) came out at 74%.

As for `CC1=C2CCC3(C)C(CCC3(C)O)C2CC2CCC(=O)C=C12` (stereo not shown), the “I. R. (%) B* (Inhibition rate, prostate)” value in the assay on ventral prostates [2] (1 mg/day s.c.) worked out at 41%. Besides, in the assay with seminal vesicles [1] (1 mg/day s.c.), the “I. R. (%) A* (Inhibition rate, seminal vesicle)” value was 67%.

On to `CC1=C2CCC3(C)C(O)C(F)CC3C2CC2CCC(=O)C=C12` (stereo not shown), for which the “I. R. (%) B* (Inhibition rate, prostate)” value in the assay on ventral prostates [2] (1 mg/day s.c.) came out at 52%. The “I. R. (%) A* (Inhibition rate, seminal vesicle)” value with seminal vesicles [1] (1 mg/day s.c.) is 77%.

For `CC1=C2CCC3(C)C(OC4=CCCCCCC4)CCC3C2CC2CCC(=O)C=C12` (stereo not shown), the “I. R. (%) B* (prostate)” value in the assay on ventral prostates [3] was determined as 34%. Also, the “I. R. (%) A* (seminal vesicle)” value with seminal vesicles [4] came to 39%.

As to `CC1=C2CC3(CCC2CC2C1=CCC1(C)C(=O)CCC21)OCCO3` (stereo not shown), in the assay on ventral prostates [3], the “I. R. (%) B* (prostate)” value is given as 25%. Besides, in the assay on seminal vesicles [4], the “I. R. (%) A* (seminal vesicle)” value was determined as 26%.

In the case of `CC1=C2CCC3(C)C(O)C(CBr)CC3C2CC2CCC(=O)C=C12` (stereo not shown), in the assay with ventral prostates [3], the “I. R. (%) B* (prostate)” value is 43%. Further, the “I. R. (%) A* (seminal vesicle)” value with seminal vesicles [4] came out at 51%.

As for `CC1=C2CCC3(C)C(O)C(Br)CC3C2CC2CCC(=O)C=C12` (stereo not shown), the “Inhibition Rate (%) of tumor weight” value in assay [5] (setting [6]) is listed as 11%; in assay [5] (setting [7]), 40%; in assay [5] (setting [8]) it was 69%. In addition, the “Tumor Weight (Mean mg ± S.E.)” value stood at 2871 ± 277 mg in assay [5] (setting [6]), 1950 ± 144 mg in assay [5] (setting [7]) and 1004 mg in assay [5] (setting [8]).

For the compound `CCC(=O)O[C@H]1CC[C@H]2[C@@H]3CCC4=CC(=O)CC[C@]4(C)[C@H]3CC[C@]12C` [Testosterone propionate, testosterone propionate, reference compound], the “Weight (Mean mg ± S.E.) B* (prostate)” value with ventral prostates [2] (setting [9]) is 40.1 ± 1.3 mg. For the same compound, the “Weight (Mean mg ± S.E.) A* (seminal vesicle)” value in the assay with seminal vesicles [1] (setting [9]) was 26.1 ± 0.8 mg. The “Tumor Weight (Mean mg ± S.E.)” value in assay [5] (testosterone propionate alone, 0.1 mg/day s.c.) was determined as 3241 ± 456 mg.

On to `CC1=C2CCC3(C)C(O)CCC3C2CC2CCC(=O)C=C12` (stereo not shown) [drawing 52], for which the “Weight (Mean mg ± S.E.) B* (prostate)” value stood at 37.9 ± 3.0 mg with ventral prostates [2] (setting [10]), 37.3 ± 3.0 mg in the assay with ventral prostates [2] (setting [11]), 27.5 ± 2.2 mg in the assay on ventral prostates [2] (setting [12]) and 23.8 ± 1.6 mg in the assay with ventral prostates [2] (setting [13]). Further, the “I. R. (%) B* (prostate)” value in the assay with ventral prostates [2] (setting [12]) worked out at 43%; with ventral prostates [2] (setting [13]), 55%. Further, the “Weight (Mean mg ± S.E.) A* (seminal vesicle)” value in the assay on seminal vesicles [1] (setting [10]) is 19.9 ± 0.6 mg; in the assay with seminal vesicles [1] (setting [11]) it was 20.7 ± 1.3 mg; with seminal vesicles [1] (setting [12]), 15.0 ± 0.7 mg; with seminal vesicles [1] (setting [13]) it was 11.4 ± 0.8 mg. In addition, the “I. R. (%) A* (seminal vesicle)” value came out at 31% in the assay with seminal vesicles [1] (setting [10]), 27% with seminal vesicles [1] (setting [11]), 56% with seminal vesicles [1] (setting [12]) and 74% in the assay on seminal vesicles [1] (setting [13]).

Regarding `CC1=C2CCC3(C)C(O)CCC3C2CC2CCC(=O)C=C12` (stereo not shown) [drawing 56], the “Inhibition Rate (%) of tumor weight” value in assay [5] (setting [6]) is 48%; in assay [5] (setting [7]), 59%; in assay [5] (setting [8]) it was 92%. Also, the figures for the “Tumor Weight (Mean mg ± S.E.)” value in assay [5] (setting [6]), in assay [5] (setting [7]) and in assay [5] (setting [8]) were 1682 ± 177 mg, 1343 ± 283 mg and 255 mg, respectively.
